Target: T1, IGF2BP3 (Homo sapiens, UniProt O00425)
T1 construct: immobilised by amine coupling on CM5 chip (PDB 6GQE used only for docking)
Assay: SPR (BIAcore T200, CM5 chip, immobilised IGF2BP3, […] Langmuir global fit)
Assay type: binding

T1 sequence (O00425 whole entry): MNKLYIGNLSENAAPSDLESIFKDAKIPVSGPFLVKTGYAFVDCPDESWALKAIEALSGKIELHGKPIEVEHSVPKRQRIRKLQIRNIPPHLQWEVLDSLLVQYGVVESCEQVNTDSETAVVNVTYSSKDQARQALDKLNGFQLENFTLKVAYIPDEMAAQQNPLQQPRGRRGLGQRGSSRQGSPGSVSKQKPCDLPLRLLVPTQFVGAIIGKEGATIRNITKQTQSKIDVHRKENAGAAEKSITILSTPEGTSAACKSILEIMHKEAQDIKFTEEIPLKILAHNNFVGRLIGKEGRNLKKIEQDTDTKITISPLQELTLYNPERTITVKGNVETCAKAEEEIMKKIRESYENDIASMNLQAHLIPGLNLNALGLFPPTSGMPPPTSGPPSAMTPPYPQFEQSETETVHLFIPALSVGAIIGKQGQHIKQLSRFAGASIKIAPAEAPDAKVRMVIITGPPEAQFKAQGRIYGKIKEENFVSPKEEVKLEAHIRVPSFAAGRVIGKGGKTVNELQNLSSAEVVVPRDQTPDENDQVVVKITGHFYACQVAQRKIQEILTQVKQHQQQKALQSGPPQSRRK

COc1cc2c[n+](C)c3c4cc5c(cc4ccc3c2cc1OC)OCO5 [nitidine chloride]
Kd: 6.37 µM

— article PMC11796242, “Nitidine chloride inhibits the progression of hepatocellular carcinoma by suppressing IGF2BP3 and modulates metabolic pathways in an m^6A-dependent manner” (Molecular Medicine, 2025)
